Test results reported in patent US5688654A, “GABA a receptor subtypes and methods for screening drug compounds using imidazoquinoxalines and pyrrolopyrimidines to bind to GABAa receptor subtypes” (Neurogen Corporation, priority 1994, dated 1997).
pKi: −log10 of the molar value.

Tests used:
known GABAa receptors = conditions: Table II, no method given; cited from earlier work
GABAa receptor subtype = assay: Drug screening assay: displacement of 3H-Compound 1 from rat cortical tissue (novel GABAa receptor subtype); type: binding; conditions: Table I; 0.5 nM 3H-Compound 1, rat cortical tissue, 20 min at 4° C., buffer with 1 uM Ro 15-1788 and 10 uM muscimol; Ki by Cheng Prusoff
Procedure: The methods for screening drug compounds of the invention using the novel GABAa receptor are illustrated by the following assays for GABAa receptor subtype activity.
Assays were carried out using the tissue preparation described in Thomas and Tallman (J. Bio. Chem. 156: 9838-9842, 1983, J. Neurosci 3: 433-440, 1983). Rat cortical tissue was dissected and homogenized in 25 volumes (w/v) of 0.05M Tris HCl buffer (pH 7.4 at 4° C.). The tissue homogenate was centrifuged in the cold (4°) at 20,000×g for 20'. The supernatant was decanted and the pellet was rehomogenized in the same volume of buffer and again centrifuged at 20,000×g. The supernatant was decanted and the pellet was frozen at -20° C. overnight. The pellet was then thawed and rehomogenized in 25 volume (original wt/vol) of buffer and the procedure was carried out twice. The pellet was finally resuspended in 50 volumes (w/vol of 0.05M Tris HCl buffer containing 1 uM Ro 15-1788. 1 uM sodium ascorbate and 10 uM muscimol (pH 7.4 at 4° C.).
Incubation mixtures contained 400 μl of tissue homogenate. 5μl of 100 nM ligand in above buffer [final ligand concentration was 0.5 nM ^3 H-Compound 1 (specific activity 67 Ci/mmol)], drug or blocker and buffer to a total volume of 1 ml. Incubations were carried for 20 min at 4° C. then were rapidly filtered through GFB filters to separate free and bound ligand. Filters were washed twice with fresh 0.05M Tris HCl buffer (pH 7.4 at 4° C.) and counted in a liquid scintillation counter. 10 μM Compound 3 was added to some tubes to determine nonspecific binding. Data were collected in triplicate determinations, averaged and % inhibition of total specific binding was calculated. Total Specific Binding=Total-Nonspecific. Typically the specific binding represented about 75 to 85% of total binding. In some cases, the amounts of unlabeled drugs was varied and total displacement curves of binding were carried out. Data were convened to a form suitable for the calculation of IC50 and Hill Coefficient (nH). These IC 50's were convened to Ki's using the Cheng Prusoff equation (Cheng and Prussoff, 1973, Biochem. Pharmacol. 22: 3099.).

[1] = test system: benzodiazepine binding site; conditions: Tallman et al., 1978; cited from earlier work

## Cc1ccc(-c2nc3ccc(C)cn3c2CC(=O)N(C)C)cc1 [Zolpidem]
Known GABAa receptors
  pKi: 7.70
GABAa receptor subtype
  pKi: 5.66

## CCOc1ccc(-n2c(=O)c3c[nH]c4ccccc4n-3c2=O)cc1 [Compound 1, 2-(4-Ethoxyphenyl)imidazo[1,5.a]quinoxaline-1,3(2H,5H)-dione]
GABAa receptor subtype
  pKi: 9.30

## CN1C(=O)CN=C(c2ccccc2)c2cc(Cl)ccc21 [Diazepam]
Known GABAa receptors
  pKi: 8.22
GABAa receptor subtype
  pKi: 5.30

## Cc1nnc2n1-c1ccc(Cl)cc1C(c1ccccc1)=NC2 [Alprazelam]
GABAa receptor subtype
  pKi: 5.10

## CN1CCc2cc3c(cc2C1C1OC(=O)c2c1ccc1c2OCO1)OCO3 (single isomer, unassigned; (+)) [(+) bicuculline]
[1]
  effect on benzodiazepine binding / on its enhancement by GABA agonists (in words): blocked

## NCCCC(=O)O [GABA, γ-Aminobutyric acid]
[1]
  effect on benzodiazepine binding / on its enhancement by GABA agonists (in words): enhance the binding of benzodiazepines

## CCCOc1ccc(-n2c(=O)c3c[nH]c4ccccc4n-3c2=O)cc1 [Compound 3, 2-(4-Propyloxyphenyl)imidazo[1,5,a]quinoxaline-1,3(2H,5H)-dione]
GABAa receptor subtype
  pKi: 9.05

## CC(C)(C)OC(=O)c1ncn2c1[C@@H]1CCCN1C(=O)c1c(Br)cccc1-2 [Bretazenil]
Known GABAa receptors
  pKi: 9.00
GABAa receptor subtype
  pKi: 4.82

## COc1cccc(-n2c(=O)c3c[nH]c4ccccc4n-3c2=O)c1 [Compound 6, 2-(3-Methoxyphenyl)imidazo[1,5.a]quinoxaline-1,3(2H,5. H)-dione]
GABAa receptor subtype
  pKi: 9.26

## CCOc1ccc(-n2c(=O)c3cn(C)c4ccccc4n-3c2=O)cc1 [Compound 5, 2-(4-Ethoxyphenyl)-5-methyl-imidazo[1,5,a]quinoxaline-1,3(2H,5H)-dione]
GABAa receptor subtype
  pKi: 8.22

## COc1ccc(F)c(-c2ncc3[nH]c4c(c3n2)CCCC4)c1 [Compound 2, 2-(2-Fluoro-5-methoxyphenyl)-6,7,g,9-tetrahydro-5H-indolo[3,2-d]-pyrimidine]
GABAa receptor subtype
  pKi: 8.41

## CN1CCc2cc3c(cc2C1C1OC(=O)c2c1ccc1c2OCO1)OCO3 (single isomer, unassigned; (-)) [(-) bicuculline]
[1]
  effect on benzodiazepine binding / on its enhancement by GABA agonists (in words): much less active

## COc1cccc(-c2ncc3[nH]c4c(c3n2)CCCC4)c1 [Compound 7, 2-(3-Methoxyphenyl)-6,7,8,9-tetrahydro-5H-indolo[3.2-d]-pyrimidine]
GABAa receptor subtype
  pKi: 7.30

## CCOC(=O)c1ncn2c1CN(C)C(=O)c1cc(F)ccc1-2 [Flumazenil]
Known GABAa receptors
  pKi: 9.00
GABAa receptor subtype
  pKi: 5.12

## CCOc1ccc(-n2c(=O)c3c[nH]c4cc(C)ccc4n-3c2=O)cc1 [Compound 4, 2-(4-Ethoxyphenyl)-7-methyl-imidazo[1,5,a]quinoxaline-1,3(2H,5H)-dione]
GABAa receptor subtype
  pKi: 9.30
